Where two headings read alike, the source gives them in different places.
Experiments:
Type in all cases: physicochemical
[1] = Thioflavin-T binding assay of synthetic peptides; conditions: 200 μM peptide, rotation 5 days, room temperature; Th-T 25 μM
Description: (§1) In the interest of improving the current description of the familiar amyloidogenic protein dataset, we selected and synthesised a subset of 96 peptides corresponding to strong aggregation prone regions identified in these proteins by Cordax. Apart of prediction strength, the peptide screen was also selectively constructed to ensure broad sequence variability and a wide distribution on the proteins of the dataset, with a preference for longer entries defined by inadequate previous characterisation. Peptide sequences were cross-checked and filtered to exclude overlapping sequences with previously identified amyloid regions and WALTZ-DB (see Table 2). The remaining selection of 96 peptides were synthesized using standard solid phase synthesis and their amyloid-forming properties were initially examined using Thioflavin-T (Th-T) or pFTAA binding, following rotating incubation for 5 days at room temperature. The binding assays are complementary, as Th-T and pFTAA are opposingly charged molecules, which increases the amyloid identification rate by overcoming cases of dye-specific failure to bind to amyloid surfaces based on charge repulsion. Under these conditions, 66 peptides successfully bind the specific dyes (FIGS. 3a & 3b) by forming fibrils with typical amyloid morphologies and properties that were verified using transmission electron microscopy (FIG. 3c) and Congo red staining for selected cases (FIG. 3d). As these dyes are known to yield false negatives, in particular for short peptides, all dye-negative peptides were further investigated using electron microscopy. During this scan, we recovered 19 additional sequences that were capable of forming sparse amyloid-like fibrils with shorter lengths (see FIG. 8).
(§2) Peptides derived from the Cordax validation set were synthesized using an Intavis Multipep RSi solid phase peptide synthesis robot. Peptide purity (>90%) was evaluated using RP-HPLC purification protocols and peptides were stored as ether precipitates (−20° C.). Peptide stocks were initially treated with 1,1,1,3,3,3-hexafluoro-isopropanol (HFIP) (Merck), then dissolved in traces of dimethyl sulfoxide (DMSO) (Merck) (<5%), filtered through 0.2 μm filters and finally in milli-Q water to reach a final concentration of 200 μM or up to 1 mM for dye-negative peptides. Dithiothreitol (DTT) (1 mM) was included in solutions of peptides spanning cysteine or methionine residues. All peptides were incubated at room temperature for a period of 5 days on a rotating wheel.
(§3) Amyloid aggregation was monitored using fluorescent spectroscopy binding assays. Th-T (Sigma) or pFTAA (Ebba Biotech AB) was added in half-area black 96-well microplates (Corning, USA) at a final concentration of 25 μM and 0.5 μM, respectively. Fluorescence intensity was measured in replicates (n=6) using a PolarStar Optima and a FluoStar Omega plate reader (BMG Labtech, Germany), equipped with an excitation filter at 440 nm and emission filters at 480 nm and 510 nm, respectively.

[2] = pFTAA binding assay of synthetic peptides; conditions: 200 μM peptide, rotation 5 days, room temperature; pFTAA 0.5 μM
Description: as §1, §2, §3

[3] = Transmission electron microscopy of peptide fibrils
Description: as §1
(§4) Peptide solutions were incubated for 5 days at room temperature in order to form mature amyloid-like fibrils. Suspensions (5 μL) of each peptide solution were added on 400-mesh carbon-coated copper grids (Agar Scientific Ltd., England), following a glow-discharging step of 30 s to improve sample adsorption. Grids were washed with milli-Q water and negatively stained using uranyl acetate (2% w/v in milli-Q water). Grids were examined with a JEM-1400 120 kV transmission electron microscope (JEOL, Japan), operated at […].

[4] = Amyloid-forming properties of the peptide screen (overall call from Th-T, pFTAA, TEM)
Description: as §1, with “8). […]” for “8).”
as §2, §3, §4

[5] = amyloid-like fibrils after 5 days at room temperature

Row | Substance | Th-T Binding [1] | pFTAA Binding [2] | TEM [3, 5] | Amyloid ([4]; overall amyloid-forming call) | TEM [3] | Amyloid [4]
1 | AAYLWV | ● | ● | ● | ● |  | 
2 | AEIEIE | ● | ● | ● | ● |  | 
3 | AFFLFC | ● | ● |  | ● |  | 
4 | ASLTIL | ● | ● | ● | ● |  | 
5 | AYVILK |  | ● |  | ● |  | 
6 | CEFLRK |  | ● |  | ● |  | 
7 | DCFEYV | ● | ● |  | ● |  | 
8 | DLVVFE | ● | ● |  | ● |  | 
9 | EDCFIL | ● | ● |  | ● |  | 
10 | EVYKWT |  | ● |  | ● |  | 
11 | FEYVQL | ● | ● |  | ● |  | 
12 | FKVAIV |  | ● |  | ● |  | 
13 | FLGYFK |  |  | ● | ● |  | 
14 | FSFTIA | ● | ● |  | ● |  | 
15 | FVIEEV | ● | ● | ● | ● |  | 
16 | FYAVRL |  |  | ● | ● |  | 
17 | GDVAFI | ● | ● |  | ● |  | 
18 | GVIHYI |  |  | ● | ● |  | 
19 | GWFLGW | ● |  |  | ● |  | 
20 | GWNIPM |  | ● |  | ● |  | 
21 | GYLTIR |  |  | ● | ● |  | 

Row | Substance | Th-T Binding [1] | pFTAA Binding [2] | TEM [3, 5] | Amyloid ([4]; overall amyloid-forming call) | TEM [3] | Amyloid [4]
22 | GYTLFS |  |  | ● | ● |  | 
23 | HYYAVA |  | ● |  | ● |  | 
24 | IFTVQL | ● | ● | ● | ● |  | 
25 | IGINIK |  |  | ● | ● |  | 
26 | IGVVGW | ● | ● |  | ● |  | 
27 | IGYNIK |  |  | ● | ● |  | 
28 | IIYNWQ | ● | ● | ● | ● |  | 
29 | ILLLFE | ● | ● | ● | ● |  | 
30 | INAWLF | ● | ● |  | ● |  | 
31 | INFEFS | ● | ● |  | ● |  | 
32 | IQIHHY |  |  | ● | ● |  | 
33 | IQVYSR | ● | ● | ● | ● |  | 
34 | LCSTFC | ● | ● |  | ● |  | 
35 | LHCLRR |  | ● |  | ● |  | 
36 | LIFMGH | ● | ● |  | ● |  | 
37 | LIVSIL | ● | ● |  | ● |  | 
38 | LLDNWD |  | ● |  | ● |  | 
39 | LLFKDS |  |  | ● | ● |  | 
40 | LLVYNK |  |  | ● | ● |  | 
41 | LNLKLL |  | ● |  | ● |  | 
42 | LNSVFK |  |  | ● | ● |  | 

Row | Substance | Th-T Binding [1] | pFTAA Binding [2] | TEM [3, 5] | Amyloid ([4]; overall amyloid-forming call) | TEM [3] | Amyloid [4]
43 | LQVDLG | ● | ● |  | ● |  | 
44 | LSIWES | ● | ● |  | ● |  | 
45 | LVMELD | ● | ● |  | ● |  | 
46 | LYHGQT |  |  | ● | ● |  | 
47 | LYHLVT |  |  | ● | ● |  | 
48 | MDKVER |  |  | ● | ● |  | 
49 | MDVFMK | ● | ● |  | ● |  | 
50 | MELIVS | ● | ● |  | ● |  | 
51 | MFSEFD | ● | ● |  | ● |  | 
52 | MIIYKG |  | ● |  | ● |  | 
53 | MLHKEF | ● |  |  | ● |  | 
54 | MSVSLV | ● | ● |  | ● |  | 
55 | MVVEHP |  | ● |  | ● |  | 
56 | MYVSEM | ● | ● |  | ● |  | 
57 | NDAFVL | ● | ● | ● | ● |  | 
58 | NFSIRY | ● | ● | ● | ● |  | 
59 | NLYEKT |  | ● |  | ● |  | 
60 | QIIEIE | ● | ● |  | ● |  | 
61 | QVFVWV | ● | ● | ● | ● |  | 
62 | QVYYRP |  |  |  |  | ● | ●
63 | SEFSKK |  | ● |  | ● |  | 

Row | Substance | Th-T Binding [1] | pFTAA Binding [2] | TEM [3, 5] | Amyloid ([4]; overall amyloid-forming call) | TEM [3] | Amyloid [4]
64 | SNFLRA |  |  | ● | ● |  | 
65 | SQFIKL |  |  | ● | ● |  | 
66 | STVISY | ● | ● | ● | ● |  | 
67 | SVDYEV |  | ● |  | ● |  | 
68 | SYVLQT | ● | ● |  | ● |  | 
69 | TDVVFM | ● | ● |  | ● |  | 
70 | TIFLDF |  | ● |  | ● |  | 
71 | TKVIPY |  | ● |  | ● |  | 
72 | TLFTMD |  |  | ● | ● |  | 
73 | VDMAMC | ● | ● |  | ● |  | 
74 | VHIVKL |  | ● | ● | ● |  | 
75 | VNFSEF | ● | ● | ● | ● |  | 
76 | VNIELL | ● | ● |  | ● |  | 
77 | VVVNKM |  | ● |  | ● |  | 
78 | VYTVFA | ● | ● |  | ● |  | 
79 | VYVDVL | ● | ● | ● | ● |  | 
80 | YDLHYW | ● | ● | ● | ● |  | 
81 | YFHARG |  |  | ● | ● |  | 
82 | YFTAIQ | ● | ● |  | ● |  | 
83 | YVAGIT | ● | ● |  | ● |  | 
